This is an account of results in patent US6949574B2 (Bristol-Myers Squibb Company, priority 2002, dated 2005).

One experiment deals with T1, human FAAH (Homo sapiens, UniProt O00519).
T1 construct: expressed in transfected cells; host or cells: H4 cells (H4-FAAH, Geneticin-selected); crude membrane homogenates
T1 sequence (O00519 1-579): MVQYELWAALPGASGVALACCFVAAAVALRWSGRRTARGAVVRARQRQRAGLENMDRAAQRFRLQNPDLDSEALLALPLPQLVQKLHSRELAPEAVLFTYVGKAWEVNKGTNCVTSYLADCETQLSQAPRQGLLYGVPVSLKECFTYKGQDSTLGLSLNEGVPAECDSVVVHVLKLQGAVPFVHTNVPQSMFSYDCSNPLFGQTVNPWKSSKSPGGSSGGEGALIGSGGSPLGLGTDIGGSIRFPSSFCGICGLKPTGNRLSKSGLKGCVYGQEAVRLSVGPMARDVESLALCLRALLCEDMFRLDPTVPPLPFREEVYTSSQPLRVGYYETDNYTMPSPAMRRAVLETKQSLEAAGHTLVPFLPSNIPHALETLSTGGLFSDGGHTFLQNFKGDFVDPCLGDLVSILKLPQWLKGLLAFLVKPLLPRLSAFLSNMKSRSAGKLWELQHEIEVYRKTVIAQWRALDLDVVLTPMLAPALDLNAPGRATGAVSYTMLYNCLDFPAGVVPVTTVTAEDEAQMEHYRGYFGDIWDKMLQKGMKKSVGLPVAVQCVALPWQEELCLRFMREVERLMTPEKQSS
The experiment can be described thus: FAAH activity in membrane homogenates of H4-FAAH cells, [3H]-anandamide hydrolysis. Type of experiment: biochemical.
Conditions: not given
The procedure:
Homogenates of crude membranes were prepared from H4 cells that express transfected human FAAH (H4-FAAH cells). Briefly, cells were grown in DMEM supplemented with 10% FBS and Geneticin at a final concentration of 500 μg/ml (Gibco BRL, Rockville, Md.). Confluent cultures of H4-FAAH cells were rinsed twice with phosphate-buffered saline [138 mM NaCl, 4.1 mM KCl, 5.1 mM Na2PO4, 1.5 mM KH2PO4 (pH 7.5), 37° C.] and incubated for 5 to 10 minutes at 4° C. in lysis buffer [1 mM sodium bicarbonate]. Cells were transferred from plates to polypropylene tubes (16×100 mm), homogenized and centrifuged at 32,000×g for 30 minutes. Pellets were resuspended by homogenization in lysis buffer and centrifuged at 32,000×g for 30 minutes. Pellets were resuspended in lysis buffer (15-20 μg protein/ml) then stored at −80° C. until needed. On the day of an experiment, membranes were diluted to 2.67 μg protein/ml in 125 mM Tris-Cl, pH 9.0.
Activity of FAAH was measured using a modification of the method described by Omeir et al., 1995 (Life Sci 56:1999, 1995). Membrane homogenates (240 ng protein) were incubated at room temperature for one hour with 1.67 nM anandamide [ethanolamine 1-^3H] (available from American Radiolabeled Chemical Inc., St Louis, Mo.) and 10 μM anandamide (available from Sigma/RBI, St. Louis, Mo.) in the absence and presence of inhibitors. The reaction was stopped by the addition of 1 volume of a solution of 1:1 methanol and dichloroethane. The mixture was shaken and then centrifuged at 1000×g for 15 minutes to separate the aqueous and organic phases. An aliquot of the aqueous phase, containing [^3H]-ethanolamine was withdrawn and counted by scintillation spectroscopy. Data were expressed as the percentage of [^3H]-ethanolamine formed versus vehicle, after subtraction of the background radioactivity determined in the presence of 10 μM arachidonyl trifluoromethyl ketone (ATFMK), an inhibitor of FAAH. IC50 values were determined using a four-parameter logistic equation for dose-response curves.
By IC50 is commonly meant the concentration needed to halve the response being measured. Take `CCCCOc1cccc(NC(=O)ON=C(C)C)c1` [Example 66, 2-Propanone, O-[[(3-butoxyphenyl)amino]carbonyl]oxime]: the IC50 is greater than 500 nM.

The same experiment, now with this note: H4-FAAH cell membranes, 10 μM anandamide, room temperature, one hour; read-out: IC50.
Take `CCCCCCCCCCCCOc1ccc(NC(=O)ON=C(C)C)cc1` [Example 40, 2-Propanone, O-[[(4-dodecyloxyphenyl)amino]carbonyl]oxime]: the IC50 was less than 10 nM.
On the same count and under the same terms, the result for `CCCCCCCCCCCCOc1ccc(NC(=O)O/N=C/c2ccccc2)cc1` [Example 41, Benzaldehyde, O-[[(4-dodecyloxyphenyl)amino]carbonyl]oxime] reads less than 10 nM; that for `CCCCCCCCCCCCOc1ccc(NC(=O)O/N=C/c2ccc(F)cc2)cc1` [Example 42, 4-Fluorobenzaldehyde, O-[[(4-dodecyloxyphenyl)amino]carbonyl]oxime], less than 10 nM; that for `CCCCCCCCCCCCOc1ccc(NC(=O)O/N=C/c2cccnc2)cc1` [Example 43, 3-Pyridinecarboxaldehyde, O-[[(4-dodecyloxyphenyl)amino]carbonyl]oxime], less than 10 nM.
Same read-out and setting: the result for `CCCCOc1ccc(NC(=O)O/N=C/c2cccnc2)cc1` [Example 44, 3-Pyridinecarboxaldehyde, O-[[(4-butoxyphenyl)amino]carbonyl]oxime] reads 10 to 100 nM.
The same measure, in the same setting: the result for `CCCCCCCCOc1ccc(NC(=O)O/N=C/c2ccccc2)cc1` [Example 45, Benzaldehyde, O-[[(4-octyloxyphenyl)amino]carbonyl]oxime] reads less than 10 nM.
Turning to `CCCCCCCCOc1ccc(NC(=O)O/N=C/c2ccc(F)cc2)cc1` [Example 46, 4-Fluorobenzaldehyde, O-[[(4-octyloxyphenyl)amino]carbonyl]oxime], the IC50 is less than 10 nM.
Still for that read-out and setting: the result for `CCCCCCCCCOc1ccc(NC(=O)O/N=C/c2ccccc2)cc1` [Example 47, Benzaldehyde, O-[[(4-nonyloxyphenyl)amino]carbonyl]oxime] reads less than 10 nM; that for `CCCCCCCCCOc1ccc(NC(=O)O/N=C/c2ccc(F)cc2)cc1` [Example 48, 4-Fluorobenzaldehyde, O-[[(4-nonyloxyphenyl)amino]carbonyl]oxime], less than 10 nM; that for `CCCCCCCCCOc1ccc(NC(=O)O/N=C/c2ccc(F)c(F)c2)cc1` [Example 49, 3,4-Difluorobenzaldehyde, O-[[(4-nonyloxyphenyl)amino]carbonyl]oxime], less than 10 nM.
The same measure, in the same setting: the result for `CCCCCCCCCOc1ccc(NC(=O)O/N=C/c2c(F)cccc2F)cc1` [Example 50, 2,6-Difluorobenzaldehyde, O-[[(4-nonyloxyphenyl)amino]carbonyl]oxime] reads less than 10 nM; that for `CCCCCCCCCOc1ccc(NC(=O)O/N=C/c2ccc(F)cc2F)cc1` [Example 51, 2,4-Difluorobenzaldehyde, O-[[(4-nonyloxyphenyl)amino]carbonyl]oxime], less than 10 nM; that for `CCCCCCCCCOc1ccc(NC(=O)O/N=C/c2cccc(F)c2)cc1` [Example 52, 3-Fluorobenzaldehyde, O-[[(4-nonyloxyphenyl)amino]carbonyl]oxime], less than 10 nM.
Still for that read-out and setting: the result for `CCCCCCCCCOc1ccc(NC(=O)O/N=C/c2ccc(C(F)(F)F)cc2)cc1` [Example 53, 4-(Trifluoromethyl)benzaldehyde, O-[[(4-nonyloxyphenyl)amino]carbonyl]oxime] reads less than 10 nM; that for `CCCCCCCCCOc1ccc(NC(=O)O/N=C/c2cccc(C(F)(F)F)c2F)cc1` [Example 54, 2-Fluoro-3-(trifluoromethyl)benzaldehyde, O-[[(4-nonyloxyphenyl)amino]carbonyl]oxime], less than 10 nM.
As for `CCCCCCCCCOc1ccc(NC(=O)O/N=C/c2cccc(F)c2F)cc1` [Example 55, 2,3-Difluorobenzaldehyde, O-[[(4-nonyloxyphenyl)amino]carbonyl]oxime], the IC50 is less than 10 nM.
Still for that read-out and setting: in the case of `CCCCCCCCCOc1ccc(NC(=O)O/N=C/c2cc(F)c(F)cc2F)cc1` [Example 56, 2,4,5-Trifluorobenzaldehyde, O-[[(4-nonyloxyphenyl)amino]carbonyl]oxime] it was less than 10 nM; in that of `CCCCCCCCCOc1ccc(NC(=O)O/N=C/c2cc(C(F)(F)F)ccc2F)cc1` [Example 57, 2-Fluoro-5-(trifluoromethyl)benzaldehyde, O-[[(4-nonyloxyphenyl)amino]carbonyl]oxime], less than 10 nM.
On to `O=C(Nc1ccc(OCCCN2CCOCC2)cc1)O/N=C/c1ccc(F)cc1` [Example 58, 4-Fluorobenzaldehyde, O-[[4-[3-(4-morpholinyl)propoxyphenyl]amino]carbonyl]oxime], for which the IC50 is greater than 500 nM.
As to `CCCCOc1ccc(NC(=O)O/N=C/c2ccc([N+](=O)[O-])cc2)cc1` [Example 59, 4-Nitrobenzaldehyde, O-[[(4-butoxyphenyl)amino]carbonyl]oxime], the IC50 was less than 10 nM.
The same measure, in the same setting: the result for `CCCCOc1ccc(NC(=O)ON=C(C)C)cc1` [Example 60, 2-Propanone, O-[[(4-butoxyphenyl)amino]carbonyl]oxime] reads 10 to 100 nM.
Same read-out and setting: in the case of `CCCCOc1ccc(CNC(=O)ON=C(C)C)cc1` [Example 61, 2-Propanone, O-[[(4-butoxyphenylmethyl)amino]carbonyl]oxime] it was greater than 500 nM; in that of `CCCCOc1ccc(CNC(=O)O/N=C/c2ccccc2)cc1` [Example 62, Benzaldehyde, O-[[(4-butoxyphenylmethyl)amino]carbonyl]oxime], 10 to 100 nM; in that of `CCCCOc1ccc(CNC(=O)O/N=C/c2ccc(F)cc2)cc1` [Example 63, 4-Fluorobenzaldehyde, O-[[(4-butoxyphenylmethyl)amino]carbonyl]oxime], 10 to 100 nM.
Same read-out and setting: in the case of `CCCCOc1ccc(CNC(=O)O/N=C/c2cccnc2)cc1` [Example 64, 3-Pyridinecarboxaldehyde, O-[[(4-butoxyphenylmethyl)amino]carbonyl]oxime] it was 10 to 100 nM; in that of `CCCCOc1cccc(NC(=O)O/N=C/c2cccnc2)c1` [Example 65, 3-Pyridinecarboxaldehyde, O-[[(3-butoxyphenyl)amino]carbonyl]oxime], 10 to 100 nM.
`CCCCOc1cccc(NC(=O)O/N=C/c2ccccc2)c1` [Example 67, Benzaldehyde, O-[[(3-butoxyphenyl)amino]carbonyl]oxime]: the half-inhibitory concentration (IC50) was 10 to 100 nM.
On the same count and under the same terms, the result for `CCCCOc1cccc(NC(=O)O/N=C/c2ccc(F)cc2)c1` [Example 68, 4-Fluorobenzaldehyde, O-[[(3-butoxyphenyl)amino]carbonyl]oxime] reads 10 to 100 nM; that for `O=C(Nc1ccc(-c2ccccc2)cc1)O/N=C/c1cccnc1` [Example 69, 3-Pyridinecarboxaldehyde, O-[[([1,1′-biphenyl]-4-yl)amino]carbonyl]oxime], 10 to 100 nM.
Regarding `CCc1ccc(-c2ccc(NC(=O)O/N=C/c3cccnc3)cc2)cc1` [Example 70, 3-Pyridinecarboxaldehyde, O-[[(4′-ethyl-[1,1′-biphenyl]-4-yl)amino]carbonyl]oxime], the IC50 was 10 to 100 nM.
Still for that read-out and setting: in the case of `O=C(Nc1ccc(Oc2ccccc2)cc1)O/N=C/c1cccnc1` [Example 71, 3-Pyridinecarboxaldehyde, O-[[(4-phenoxyphenyl)amino]carbonyl]oxime] it was less than 10 nM.
Same read-out and setting: in the case of `O=C(Nc1ccc(-c2ccccc2)cc1)O/N=C/c1ccccc1` [Example 72, Benzaldehyde, O-[[([1,1′-biphenyl]-4-yl)amino]carbonyl]oxime] it was 10 to 100 nM.
